Results as given in article PMC11638952, “Fine-Tuning the Function of Farnesene Synthases for Selective Synthesis of Farnesene Stereoisomers” (Journal of Agricultural and Food Chemistry, 2024).

Assays:
Conditions in all cases: 50 mM Tris-HCl pH 8.0, 10 μM MgCl2, 30 °C, 10 min, FPP 2-80 μM
AaFS [1] = target: T1, AaFS (Artemisia annua, UniProt Q9FXY7)
T1 construct: gene CASC125
Source text: (§1) steady-state kinetics, product quantified by peak area after hexane extraction on AaFS

AaFS [2] = target: T2, AaFS (Artemisia annua, UniProt Q9FXY7, L326I, form not given)
T2 construct: gene CASC125
Source text: as §1

AaFS [3] = target: T3, AaFS (Artemisia annua, UniProt Q9FXY7, M436I, form not given)
T3 construct: gene CASC125
Source text: as §1

AaFS [4] = target: T4, AaFS (Artemisia annua, UniProt Q9FXY7, W299C, form not given)
T4 construct: gene CASC125
Source text: as §1

T1 sequence (Q9FXY7 whole entry): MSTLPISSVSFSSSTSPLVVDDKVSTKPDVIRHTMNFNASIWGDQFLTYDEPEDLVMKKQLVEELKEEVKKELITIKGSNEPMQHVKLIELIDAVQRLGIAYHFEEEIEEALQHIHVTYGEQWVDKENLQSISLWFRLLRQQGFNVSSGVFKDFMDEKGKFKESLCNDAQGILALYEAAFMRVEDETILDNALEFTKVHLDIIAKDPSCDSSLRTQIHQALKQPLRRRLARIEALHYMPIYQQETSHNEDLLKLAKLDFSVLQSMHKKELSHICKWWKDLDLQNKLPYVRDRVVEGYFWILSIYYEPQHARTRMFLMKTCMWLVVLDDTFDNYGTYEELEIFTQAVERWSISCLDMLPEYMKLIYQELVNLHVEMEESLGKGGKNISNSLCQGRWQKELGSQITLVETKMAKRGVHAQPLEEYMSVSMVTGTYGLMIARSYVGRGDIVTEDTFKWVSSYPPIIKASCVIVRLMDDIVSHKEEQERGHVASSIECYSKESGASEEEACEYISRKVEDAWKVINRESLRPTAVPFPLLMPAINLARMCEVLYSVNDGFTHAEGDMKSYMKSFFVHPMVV
T4 sequence (Q9FXY7 whole entry W299C, form open): as the sequence (Q9FXY7 whole entry) above, with W299C counted along it
T3 sequence (Q9FXY7 whole entry M436I, form open): as the sequence (Q9FXY7 whole entry) above, with M436I counted along it
T2 sequence (Q9FXY7 whole entry L326I, form open): as the sequence (Q9FXY7 whole entry) above, with L326I counted along it

Km (AaFS [1]): 14.3 ± 2.3 µM | Km (AaFS [2]): 6.75 ± 3.7 µM | Km (AaFS [3]): 7.64 ± 4.8 µM | Km (AaFS [4]): 21.3 ± 1.8 µM
SMILES: CC(C)=CCC/C(C)=C/CC/C(C)=C/CO[P@@](=O)(O)OP(=O)(O)O (stereo in doubt) [FPP, farnesyl pyrophosphate]
